Entries after “also recorded” stand apart in the source; their conditions may differ.
Columns and labels:
IL-2 production = test: Inhibition of IL-2 production in PHA-activated Jurkat cells (ELISA); assay type: cell-based; details: Homo sapiens, PHA 2.5 μg/mL, 20 hours, IL-2 ELISA
Experimental: Jurkat cells were placed in a 96 well plate (0.5 million cells per well in 1% FBS medium) then a test compound of this invention was added at different concentrations. After 10 minutes, the cells were activated with PHA (final concentration 2.5 μg/mL) and incubated for 20 hours at 37° C. under CO2. The final volume was 200 μL. Following incubation, the cells were centrifuged and the supernatants were collected and stored at −70° C. prior to assaying for IL-2 production. A commercial ELISA kit (IL-2 Eli-pair, Diaclone Research, Besancon, France) was used to detect production of IL-2, from which dose response curves were obtained. The IC50 value was calculated as the concentration at which 50% of maximum IL-2 production after stimulation was inhibited versus a non-stimulation control.

[1] = system: Delayed-Type Hypersensitivity (DTH) reaction; test: Inhibition of delayed-type hypersensitivity (DTH) reaction in rats; assay type: in vivo, Lewis rats; details: rat DTH
Experimental: Lewis rats (n=7 each group) were sensitized with chicken ovalbumin (OVA; Sigma, A5503) and complete Freund's adjuvant (CFA; Sigma F5881) was injected into tail base by s.c. on day 0. On day 7, the animals were challenged with ovalbumin (OVA) on their right ears.
Compounds 1 and 10 were prepared in vehicle solution (20% Vitamin E TPGS and 80% PEG-8).
Female Lewis rats, 6-8 weeks of age, were obtained from Charles River Laboratories and permitted to acclimate for one week prior to experimental procedures. Rodents were allowed water and food ad libitum. Animals were housed in accordance with the Institutional Animal Care and Use Committee (IACUC), and experiments were performed in compliance with IACUC guidelines.
Rat ears were measured with a dial thickness gauge (Mitutoyo gauge #8, Mitutoyo, USA). The swelling response was calculated by subtracting the ear thickness before challenge (baseline) from that of the same ear after challenge. To measure the ear weight, both left and right ears of euthanized rats were punched out with cork holer, the ear weight change was calculated by subtracting the saline-treated left ear weight from that of the OVA-challenged right ear weight.
Delayed-type hypersensitivity is an in vivo T cell-dependent immune response manifested as an inflammatory reaction that reaches peak intensity 24 hr after OVA challenge. To determine the immunosuppressive effect of Compounds 1 and 10 in the rat DTH reaction, groups of rats (n=7) were administered with either vehicle, Compound 1 or Compound 10, orally three times, starting 2 hr before ear challenge, and 3 and 9 hr after ear challenge.

[2] = 15 mg/kg orally at −2, +3, +9 hr, 24 hr after OVA challenge, relative to vehicle-treated group

SMILES	IC50 (IL-2 production) [nM]	other results
COc1ccc2c(c1)nc(C(F)(F)F)n2-c1cnc(NC(=O)c2c(F)cccc2F)cn1 [Compound 1, 2,6-Difluoro-N-[5-(5-methoxy-2-trifluoromethyl-benzoimidazol-1-yl)-pyrazin-2-yl]-benzamide]	6	Inhibition of gross change (%) Ear thickness (mm) [1, 2]: 77%; Inhibition of gross change (%) Ear weight (mg) [1, 2]: 79%; effect on ear weight after ovalbumin challenge ([1]; compared to vehicle alone, FIGS. 1 and 2): decreased ear weight; also recorded: significantly inhibited; effect on ear thickness after ovalbumin challenge ([1]; compared to vehicle alone, FIGS. 3 and 4): decreased ear thickness; also recorded: significantly inhibited
COc1ccc2c(c1)nc(C(F)(F)F)n2-c1cnc(NC(=O)c2ccc(OC)c(OC)c2)cn1 [Compound 126, 3,4-Dimethoxy-N-[5-(5-methoxy-2-trifluoromethyl-benzoimidazol-1-yl)-pyrazin-2-yl]-benzamide]	> 1000	
COc1ccc2c(c1)nc(C(F)(F)F)n2-c1cnc(NCc2ccccc2OC)cn1 [Compound 102, (2-Methoxy-benzyl)-[5-(5-methoxy-2-trifluoromethyl-benzoimidazol-1-yl)-pyrazin-2-yl]-amine]	> 1000	
COc1ccc2c(c1)nc(C(F)(F)F)n2-c1cnc(NCc2ccccc2C)cn1 [Compound 46, [5-(5-Methoxy-2-trifluoromethyl-benzoimidazol-1-yl)-pyrazin-2-yl]-(2-methyl-benzyl)-amine]	> 1000	
COc1ccc2c(c1)nc(C(F)(F)F)n2-c1cnc(NC(=O)c2ccc([N+](=O)[O-])c(OC)c2)cn1 [Compound 147, 3-Methoxy-N-[5-(5-methoxy-2-trifluoromethyl-benzoimidazol-1-yl)-pyrazin-2-yl]-4-nitro-benzamide]	> 1000	
COc1ccc2c(c1)nc(C(F)(F)F)n2-c1cnc(NC(=O)c2ccc(F)cc2Br)cn1 [Compound 138, 2-Bromo-4-fluoro-N-[5-(5-methoxy-2-trifluoromethyl-benzoimidazol-1-yl)-pyrazin-2-yl]-benzamide]	83	
COc1ccc2c(c1)nc(C(F)(F)F)n2-c1cnc(NC(=O)c2cc(Cl)ccc2F)cn1 [Compound 148, 5-Chloro-2-fluoro-N-[5-(5-methoxy-2-trifluoromethyl-benzoimidazol-1-yl)-pyrazin-2-yl]-benzamide]	98	
COc1cccc(CNc2cnc(-n3c(C(F)(F)F)nc4cc(OC)ccc43)cn2)c1 [Compound 103, (3-Methoxy-benzyl)-[5-(5-methoxy-2-trifluoromethyl-benzoimidazol-1-yl)-pyrazin-2-yl]-amine]	> 1000	
COc1ccc2c(c1)nc(C(F)(F)F)n2-c1cnc(NC(=O)c2ccccc2OC)cn1 [Compound 111, 2-Methoxy-N-[5-(5-methoxy-2-trifluoromethyl-benzoimidazol-1-yl)-pyrazin-2-yl]-benzamide]	> 1000	
COc1ccc2c(c1)nc(C(F)(F)F)n2-c1cnc(NC(=O)c2cc(F)c(F)cc2F)cn1 [Compound 143, 2,4,5-Trifluoro-N-[5-(5-methoxy-2-trifluoromethyl-benzoimidazol-1-yl)-pyrazin-2-yl]-benzamide]	178	
COc1ccc2c(c1)nc(C(F)(F)F)n2-c1cnc(NC(=O)c2cccc([N+](=O)[O-])c2C)cn1 [Compound 135, N-[5-(5-Methoxy-2-trifluoromethyl-benzoimidazol-1-yl)-pyrazin-2-yl]-2-methyl-3-nitro-benzamide]	103	
O=C(Nc1cnc(-n2c(C(F)(F)F)nc3cc(-c4ncco4)ccc32)cn1)c1c(F)cccc1F [Compound 153, 2,6-Difluoro-N-[5-(5-oxazol-2-yl-2-trifluoromethyl-benzoimidazol-1-yl)-pyrazin-2-yl]-benzamide]	15	
COc1ccc2c(c1)nc(C(F)(F)F)n2-c1cnc(NC(=O)c2cc(OC)c(OC)cc2OC)cn1 [Compound 136, 2,4,5-Trimethoxy-N-[5-(5-methoxy-2-trifluoromethyl-benzoimidazol-1-yl)-pyrazin-2-yl]-benzamide]	> 1000	
COc1ccc2c(c1)nc(C(F)(F)F)n2-c1cnc(NC(=O)c2cccc(OC)c2OC)cn1 [Compound 128, 2,3-Dimethoxy-N-[5-(5-methoxy-2-trifluoromethyl-benzoimidazol-1-yl)-pyrazin-2-yl]-benzamide]	187	
COc1ccc2c(c1)nc(C(F)(F)F)n2-c1cnc(NC(=O)c2ccc(C)c([N+](=O)[O-])c2)cn1 [Compound 140, N-[5-(5-Methoxy-2-trifluoromethyl-benzoimidazol-1-yl)-pyrazin-2-yl]-4-methyl-3-nitro-benzamide]	192	
COc1ccc2c(c1)nc(C(F)(F)F)n2-c1cnc(NCc2c(F)cccc2Cl)cn1 [Compound 100, (2-Chloro-6-fluoro-benzyl)-[5-(5-methoxy-2-trifluoromethyl-benzoimidazol-1-yl)-pyrazin-2-yl]-amine]	132	
COc1ccc2c(c1)nc(C(F)(F)F)n2-c1cnc(NCc2ccccc2F)cn1 [Compound 41, (2-Fluoro-benzyl)-[5-(5-methoxy-2-trifluoromethyl-benzoimidazol-1-yl)-pyrazin-2-yl]-amine]	396	
COc1ccc2c(c1)nc(C(F)(F)F)n2-c1cnc(NCc2ccccc2Cl)cn1 [Compound 87, (2-Chloro-benzyl)-[5-(5-methoxy-2-trifluoromethyl-benzoimidazol-1-yl)-pyrazin-2-yl]-amine]	> 1000	
COc1ccc2c(c1)nc(C(F)(F)F)n2-c1cnc(NC(=O)c2cccc(C)c2[N+](=O)[O-])cn1 [Compound 142, N-[5-(5-Methoxy-2-trifluoromethyl-benzoimidazol-1-yl)-pyrazin-2-yl]-3-methyl-2-nitro-benzamide]	324	

More lines, main results first:

IC50 (IL-2 production) [nM]	SMILES	other results
96	COc1ccc2c(c1)nc(C(F)(F)F)n2-c1cnc(NC(=O)c2cccc(C#N)c2)cn1 [Compound 101, 3-Cyano-N-[5-(5-methoxy-2-trifluoromethyl-benzoimidazol-1-yl)-pyrazin-2-yl]-benzamide]	
81	CCCCc1ccc(C(=O)Nc2cnc(-n3c(C(F)(F)F)nc4cc(OC)ccc43)cn2)cc1 [Compound 117, 4-Butyl-N-[5-(5-methoxy-2-trifluoromethyl-benzoimidazol-1-yl)-pyrazin-2-yl]-benzamide]	
489	COc1ccc2c(c1)nc(C(F)(F)F)n2-c1cnc(NC(=O)c2cccc(SC)c2)cn1 [Compound 95, N-[5-(5-Methoxy-2-trifluoromethyl-benzoimidazol-1-yl)-pyrazin-2-yl]-3-methylsulfanyl-benzamide]	
780	COc1ccc2c(c1)nc(C(F)(F)F)n2-c1cnc(NC(=O)c2cccc(C(F)(F)F)c2)cn1 [Compound 125, N-[5-(5-Methoxy-2-trifluoromethyl-benzoimidazol-1-yl)-pyrazin-2-yl]-3-trifluoromethyl-benzamide]	
> 1000	CCOc1ccc(C(=O)Nc2cnc(-n3c(C(F)(F)F)nc4cc(OC)ccc43)cn2)cc1 [Compound 133, 4-Ethoxy-N-[5-(5-methoxy-2-trifluoromethyl-benzoimidazol-1-yl)-pyrazin-2-yl]-benzamide]	
20	COc1ccc2c(c1)nc(C(F)(F)F)n2-c1cnc(NC(=O)c2ccccc2F)cn1 [Compound 5, 2-Fluoro-N-[5-(5-methoxy-2-trifluoromethyl-benzoimidazol-1-yl)-pyrazin-2-yl]-benzamide]	
88	COc1ccc2c(c1)nc(C(F)(F)F)n2-c1cnc(NC(=O)c2ccc(F)c(F)c2F)cn1 [Compound 149, 2,3,4-Trifluoro-N-[5-(5-methoxy-2-trifluoromethyl-benzoimidazol-1-yl)-pyrazin-2-yl]-benzamide]	
714	COc1ccc2c(c1)nc(C(F)(F)F)n2-c1cnc(NC(=O)c2ccc(C(F)(F)F)cc2)cn1 [Compound 137, N-[5-(5-Methoxy-2-trifluoromethyl-benzoimidazol-1-yl)-pyrazin-2-yl]-4-trifluoromethyl-benzamide]	
37	COc1ccc2c(c1)nc(C(F)(F)F)n2-c1cnc(NC(=O)c2ccccc2Br)cn1 [Compound 85, 2-Bromo-N-[5-(5-methoxy-2-trifluoromethyl-benzoimidazol-1-yl)-pyrazin-2-yl]-benzamide]	
181	COc1ccc2c(c1)nc(C(F)(F)F)n2-c1cnc(NC(=O)c2ccc(C#N)cc2)cn1 [Compound 93, 4-Cyano-N-[5-(5-methoxy-2-trifluoromethyl-benzoimidazol-1-yl)-pyrazin-2-yl]-benzamide]	
91	COc1ccc2c(c1)nc(C(F)(F)F)n2-c1cnc(NC(=O)c2cccc(Cl)c2)cn1 [Compound 96, 3-Chloro-N-[5-(5-methoxy-2-trifluoromethyl-benzoimidazol-1-yl)-pyrazin-2-yl]-benzamide]	
